This is an account of results in PMC6225322, “Development of Kinase Inhibitors via Metal-Catalyzed C–H Arylation of 8-Alkyl-thiazolo[5,4-f]-quinazolin-9-ones Designed by Fragment-Growing Studies” (Molecules : A Journal of Synthetic Chemistry and Natural …, 2018).

The target in one assay is GSK-3α/β. Kind of assay: GSK-3α/β in vitro kinase assay (GS-1 peptide). It is filed as biochemical, porcine. The following applies: Table 4; ATP 15 μM, triplicate; <50% inhibition at 10 μM = IC50 >10 μM. Here is the method:
(§1) Products of series 2a–j, 3a–c, 4a–f, 9a–i, and 10 were evaluated in five different in vitro kinase assays: CDK5/p25, CK1δ/ε (casein kinase 1), GSK-3α/β, DYRK1A (dual-specificity, tyrosine phosphorylation regulated kinase), and CLK1 [37, 38, 39].
(§2) Controls were performed with appropriate dilutions of dimethyl sulfoxide (DMSO).
GSK-3α/β (porcine brain, native) was assayed, in buffer A, with 0.5 mg BSA/mL + 1 mM DTT, using GS-1 ([…]pEDEEE) (pS stands for phosphorylated serine), a GSK-3 specific substrate, in the presence of 15 μmol/L [γ-^33P] ATP (3000 Ci/mmol; 10 mCi/mL) in a final volume of 30 μL. After 30 min incubation at 30 °C, the reaction was stopped by harvesting onto P81 phosphocellulose […] (Whatman, Dutscher SAS, Brumath, France) using a FilterMate harvester (PerkinElmer, Courtaboeuf, France), and were washed in 1% phosphoric acid. Scintillation fluid was added, and the radioactivity measured in a Packard counter.

A further assay concerns the target DYRK1A (Homo sapiens, UniProt Q13627). Kind of assay: DYRK1A in vitro kinase assay (Woodtide). It is filed as biochemical. The protocol: as §1, §2
For another assay, the target named is CLK1 (Homo sapiens, UniProt P49759). Kind of assay: CLK1 in vitro kinase assay (RS peptide). The format is biochemical.
A further assay concerns the target CK1δ/ε. Kind of assay: CK1δ/ε in vitro kinase assay (CKS peptide). The format is biochemical, porcine. The conditions noted are these: Table 4; ATP 15 μM, triplicate; <50% inhibition at 10 μM = IC50 >10 μM. The protocol:
as §1, §2
CK1δ/ε (porcine brain, native) was assayed as described for CDK1, but in buffer B, and using 25 μM CKS peptide ([…]pSAYSITA), a CK1-specific substrate.

The target of another assay is T1, CDK5/p25 (Homo sapiens, UniProt Q00535).
T1 construct: made in house
Kind of assay: CDK5/p25 in vitro kinase assay (33P-ATP, histone H1). The format is biochemical.

pIC50: −log10 of the molar value.

T1 sequence (Q00535 whole entry): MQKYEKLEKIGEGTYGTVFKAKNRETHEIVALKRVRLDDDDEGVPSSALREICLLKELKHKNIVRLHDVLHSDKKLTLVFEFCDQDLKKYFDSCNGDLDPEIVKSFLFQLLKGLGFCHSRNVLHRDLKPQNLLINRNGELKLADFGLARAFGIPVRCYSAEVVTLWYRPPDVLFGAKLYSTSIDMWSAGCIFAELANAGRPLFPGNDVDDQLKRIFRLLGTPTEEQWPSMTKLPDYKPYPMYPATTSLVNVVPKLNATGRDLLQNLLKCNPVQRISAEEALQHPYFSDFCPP
T1 sequence (Q15078 99-307 partner limits assumed): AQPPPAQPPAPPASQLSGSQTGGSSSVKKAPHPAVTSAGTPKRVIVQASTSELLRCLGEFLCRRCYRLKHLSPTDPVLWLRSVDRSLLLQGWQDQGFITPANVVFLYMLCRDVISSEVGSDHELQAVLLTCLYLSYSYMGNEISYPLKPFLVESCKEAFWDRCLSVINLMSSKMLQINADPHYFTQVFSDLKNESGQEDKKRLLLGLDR
Chain of CLK1 (P49759 whole entry): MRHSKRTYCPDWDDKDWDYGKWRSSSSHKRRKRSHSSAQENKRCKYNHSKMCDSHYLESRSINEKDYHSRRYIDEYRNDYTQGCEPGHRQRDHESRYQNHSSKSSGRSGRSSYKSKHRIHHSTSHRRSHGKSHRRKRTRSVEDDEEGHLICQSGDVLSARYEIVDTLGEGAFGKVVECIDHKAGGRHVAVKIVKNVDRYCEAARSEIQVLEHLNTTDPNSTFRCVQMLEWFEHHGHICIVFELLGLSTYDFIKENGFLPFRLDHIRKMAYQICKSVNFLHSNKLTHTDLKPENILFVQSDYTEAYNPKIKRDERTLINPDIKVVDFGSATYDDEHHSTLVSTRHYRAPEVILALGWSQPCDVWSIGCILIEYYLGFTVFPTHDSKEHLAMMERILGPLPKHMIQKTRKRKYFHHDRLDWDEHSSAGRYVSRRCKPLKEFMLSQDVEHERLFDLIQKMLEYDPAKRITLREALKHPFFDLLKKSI
Procedure for CDK5/p25: CDK5/p25 (Human, recombinant) was prepared as previously described [37]. Its kinase activity was assayed in buffer A, with 1 mg of histone H1/mL, in the presence of 15 μM [γ-^33P] ATP (3000 Ci/mmol; 10 mCi/mL) in a final volume of 30 μL. After 30 min incubation at 30 °C, 25 μL aliquots of supernatant were spotted onto sheets of Whatman P81 phosphocellulose paper, and 20 s later, the filters were washed eight times (for at least 5 min each time) in a solution of 10 mL phosphoric acid/L of water. The wet filters were counted in the presence of 1 mL ACS (Amersham) scintillation fluid.

Turning to `O=c1c2c(ccc3nc(-c4cccnc4)sc32)ncn1C1CCC1` [4d, 8-Cyclobutyl-2-(pyridin-3-yl)thiazolo[5,4-f]quinazolin-9(8H)-one], the negative-log IC50 (pIC50) on GSK-3α/β, against DYRK1A, on CLK1 and at CK1δ/ε was less than 5.00 in each case.
For the compound `COc1ccc2c(c1)[nH]c1c(C)nccc12` [Harmine, reference compound], the results for the pIC50 against GSK-3α/β and against CK1δ/ε were less than 5.00 and 5.82, respectively.
Regarding `O=c1c2c(ccc3nc(-c4cccnc4)sc32)ncn1C1CCCC1` [4e, 8-Cyclopentyl-2-(pyridin-3-yl)thiazolo[5,4-f]quinazolin-9(8H)-one], the pIC50 against GSK-3α/β, against DYRK1A, on CLK1 and against CK1δ/ε was less than 5.00 each time.
Turning to `O=c1c2c(ccc3nc(-c4cccnc4)sc32)ncn1C1CCCCC1` [4f, 8-Cyclohexyl-2-(pyridin-3-yl)thiazolo[5,4-f]quinazolin-9(8H)-one], the pIC50 at GSK-3α/β, against DYRK1A, against CLK1 and against CK1δ/ε was less than 5.00 in each case.
`COc1ncccc1-c1nc2ccc3ncn(C4CC4)c(=O)c3c2s1` [compound 10]: the negative-log IC50 (pIC50) on CDK5/p25 was less than 5.00; at GSK-3α/β, no more than 5.00; at DYRK1A, less than 5.00; at CLK1, less than 5.00; on CK1δ/ε it was less than 5.00. Further, at DYRK1A (SAR discussion), the “DYRK inhibitory activity (in words)” value is “inactive”.
Regarding `O=c1c2c(ccc3nc(-c4cccnc4)sc32)ncn1Cc1ccccc1` [3a], the negative-log IC50 (pIC50) on CDK5/p25 was less than 5.00; at GSK-3α/β it was 5.43; at DYRK1A, 7.92; against CLK1, 5.70; against CK1δ/ε, less than 5.00.
Take `CC(C)n1cnc2ccc3nc(-c4cccnc4)sc3c2c1=O` [4b, 8-Isopropyl-2-(pyridin-3-yl)thiazolo[5,4-f]quinazolin-9(8H)-one]: the pIC50 on GSK-3α/β, against DYRK1A, against CLK1 and at CK1δ/ε was less than 5.00 throughout.
For the compound `Cn1cnc2ccc3nc(-c4cccnc4)sc3c2c1=O` [4a, 8-Methyl-2-(pyridin-3-yl)thiazolo[5,4-f]quinazolin-9(8H)-one], the pIC50 at GSK-3α/β, at DYRK1A, at CLK1 and against CK1δ/ε was less than 5.00 each time.
Consider `O=c1c2c(ccc3nc(-c4cnccn4)sc32)ncn1Cc1ccccc1` [3b], for which the pIC50 is less than 5.00 on CDK5/p25; 5.22 against GSK-3α/β; 6.88 on DYRK1A; 5.48 against CLK1; less than 5.00 on CK1δ/ε.
`O=c1c2c(ccc3nc(-c4cccnc4)sc32)ncn1C1CC1` [4c, 8-Cyclopropyl-2-(pyridin-3-yl)thiazolo[5,4-f]quinazolin-9(8H)-one]: the negative logarithm of the IC50 (pIC50) was 7.17 against GSK-3α/β, 7.96 at DYRK1A, 7.74 against CLK1 and 5.22 at CK1δ/ε.
